Measurements taken from PMC8185805, “An improved method for the incorporation of fluoromethyl ketones into solid phase peptide synthesis techniques” (RSC Advances, 2021).
*: point of attachment. Cbz = O=C(OCc1ccccc1)*; CH2F = FC*

Tested on: 3CL^pro of SARS-CoV-2
Details: pH 7.6

With Cbz-SAVLD(OMe)-CH2F [compound 15] the “3CL^pro protease activity in the presence of PFMK inhibitor (gel-based cleavage of FLAG-His-SAVLQ-nsp9)” value was “completely abolished”.
